# Experimental data: PubChem BioAssay (NCI)
# Values joined by “and” are separate entries in the source; they are usually repeats but may differ in a detail not shown here. Equal values may be shown once.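 Grown in 96-well plates, cells were treated for 48 hours with each compound at five concentrations. Insufficient inhibition: endpoint recorded as highest concentration tested. GI50 = concentration required for 50% inhibition of growth. TGI: concentration producing complete growth inhibition.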
# Tests used:
# Test in all cases: NCI anticancer screen, dose series, 48 h
# [1] = system: CCRF-CEM leukemia
# [2] = system: HCT-116 colon
# [3] = system: HOP-92 NSCLC
# [4] = system: KM12 colon
# [5] = system: TK-10 renal
# [6] = system: U251 CNS
# [7] = system: A498 renal
# [8] = system: HCC-2998 colon
# [9] = system: MDA-MB-231 breast
# [10] = system: MDA-MB-435
SMILES,TGI [1] [µM],TGI [2] [µM],TGI [3] [µM],TGI [4] [µM],TGI [5] [µM],TGI [6] [µM],TGI [7] [µM],TGI [8] [µM],TGI [9] [µM],TGI [10] [µM],GI50 [7] [µM],GI50 [1],GI50 [8] [µM],GI50 [2] [µM],GI50 [4],GI50 [9] [µM],GI50 [10] [µM],GI50 [6],GI50 [5],GI50 [3] [µM]
CCN(CC)CCCn1cnc2ncccc2c1=O,> 100,> 100,> 100,> 100,> 100,> 100,,,,,,,,,,,,,,
CC1(Cl)CC2OC3(Br)C=CC(C)(O)C2(CC1Br)C3(C)C (stereo unspecified),> 100,> 100,> 100,> 100,> 100,> 100,> 100,> 100,,,,,,,,,,,,
CSc1cccc(-n2c3nc(=O)n(C)c(=O)c-3nc3ccccc32)c1,42.7,,25.3,43.2,40.9,23.3,25.3,16.5,,,,,,,,,,,,
Cc1ccccc1C1=[N+]([O-])c2ccccc2C1=O,54.5,32.4,62.5,25.9,32.2,31,> 100,,,,,,,,,,,,,
COC(c1cccc(C(O)(C(F)(F)F)C(F)(F)F)c1)(C(F)(F)F)C(F)(F)F,,31,,33.9,36.6,33.9,34.4,21.7,,,,,,,,,,,,
COc1ccc(NC(=O)CC(=O)N2N=C(N(CCC#N)c3ccccc3Cl)CC2c2ccccc2)cc1 (stereo unspecified),> 100,> 100,> 100,> 100,> 100,> 100,> 100,> 100,,,,,,,,,,,,
O=C(Nc1ccccc1)c1nn(-c2cc(S(=O)(=O)O)c([N+](=O)[O-])cc2Cl)[n+](-c2cc(S(=O)(=O)[O-])c([N+](=O)[O-])cc2Cl)n1,> 100,> 100,,> 100,> 100,> 100,,> 100,94,> 100,,,,,,,,,,
O=[N+]([O-])c1ccccc1N=Nc1c(O)[nH]c2ccc(Br)cc12,31.9,> 67,,36.5,30.8,> 53.3,> 45.8,34.1,25.2,> 94.4,,,,,,,,,,
COc1cccc(C2C3=C(COC3=O)N(CCO)c3cc(OC)ccc32)c1 (stereo unspecified),> 100,,,,> 100,> 100,1.08,> 100,4.91,0.0631,0.0367,0.204 µM,0.137,0.107,0.0543 µM,0.362,0.0232,0.0992 µM,,
CC[O-].CC[O-].O=C([CH-]C(=O)c1cccnc1)c1ccccc1.O=C([CH-]C(=O)c1cccnc1)c1ccccc1.[Ti+4],,> 100,,> 100,,> 100,> 100,> 100,,,> 100,,> 100,> 100,32.7 µM,,,27.2 µM,,
C/C=C/C1=C(Cl)C(=O)[C@@H](Cl)[C@@]1(O)C(=O)OC,> 24,11.7,6.22,22.2,9.14,18.8,14.3,8.84,,,,,,,,,,,,
CC(=O)Oc1cc(C)c2c(c1OC(C)=O)CC1(O2)[C@@H](C)CCC2[C@@]3(C)CC[C@H](OC(C)=O)C(C)(C)C3CC[C@]21C (stereo partly specified),,13.3,8.01,18.2,11.1,14.4,21.4,19.2,,,,,,,,,,,,
COC(=O)C1=C(C)NC(C)=C(C(=O)OC)C1/C=C(\Cl)c1ccc(Cl)c(Cl)c1,31.6,24.6,,31.5,30.3,27.1,24.1,31.1,25.3,32.1,11.4,5.55 µM,17.3,12.2,15.4 µM,11.9,15.1,14.1 µM,14.8 µM,
CN(C)CCN(C)CC1COC(C)(C)O1 (stereo unspecified),> 100,> 100,> 100,> 100,> 100,> 100,> 100,> 100,,,,,,,,,,,,
Cc1oc2c(C)c3oc(=O)cc(C)c3cc2c1CNC(=O)[C@@H]1OCCOCCOCCOCCOCCOC1C(=O)O (stereo partly specified),> 100,> 100,> 100,> 100,> 100,> 100,> 100,> 100,,,,,,,,,,,,
CCOC(=O)c1c(-c2ccccc2)oc(-c2ccccc2)c1C(=O)OCC,> 100,> 100,> 100,> 100,> 100,> 100,> 100,> 100,,,,,,,,,,,,

SMILES,TGI [1] [µM],TGI [2] [µM],TGI [3] [µM],TGI [4] [µM],TGI [5] [µM],TGI [6] [µM],TGI [7] [µM],TGI [8] [µM],TGI [9] [µM],TGI [10] [µM],GI50 [7] [µM],GI50 [1],GI50 [8] [µM],GI50 [2] [µM],GI50 [4],GI50 [9] [µM],GI50 [10] [µM],GI50 [6],GI50 [5],GI50 [3] [µM]
CCCCCCCC(=O)NCC(O)CNC(=O)CCCCCCC,> 100,> 100,> 100,> 100,> 100,> 100,> 100,> 100,,,,,,,,,,,,
CC(=O)O[C@@]12CO[C@@H]1C[C@H](O)[C@@]1(C)C(=O)[C@H](O)C3=C(C)[C@@H](OC(=O)[C@H](O)[C@@H](NC(=O)OC(C)(C)C)c4ccccc4)C[C@@](O)([C@@H](OC(=O)c4ccccc4)[C@H]21)C3(C)C,> 73.6,> 100,59.4,> 62.2,,28.3,56.1,,,,0.0518,0.0286 µM and 0.0159 µM,0.0182,0.00203,0.00708 µM and 0.0021 µM,,,0.00244 µM and 0.00364 µM,0.0327 µM and 0.00788 µM,
O=C1C2C(C(=O)[N]1[Hg][c]1cccs1)C1(Cl)C(Cl)=C(Cl)C2(Cl)C1(Cl)Cl (stereo unspecified),,2.54,3.03,24.3,3.04,1.68,6.05,3.59,,3.05,2.29,0.29 µM,1.97,1.25,11.7 µM,,1.47,0.466 µM,1.65 µM,1.58
CCOC(=O)N1C2C=C(C)C(ON2C(=O)c2ccccc2)C2C(C)C(=O)N21 (stereo unspecified),> 100,> 100,> 100,> 100,> 100,> 100,> 100,> 100,,,,,,,,,,,,
CC(=O)N1c2ccccc2C2=CC3C4C(=O)N(c5ccccc5)C(=O)C4C21C1C(=O)N(c2ccccc2)C(=O)C31 (stereo unspecified),> 100,> 100,> 100,> 100,> 100,> 100,> 100,> 100,,,,,,,,,,,,
CCN1/C(=C/C=C/c2n(-c3ccccc3)c3ccc(-c4nc5ccccc5s4)cc3[n+]2CC)N(c2ccccc2)c2ccc(-c3nc4ccccc4s3)cc21,> 50,> 50,,> 50,> 50,1.92,2.39,> 31.1,1.68,> 50,0.246,2.69 µM,1.69,0.436,1.24 µM,0.19,1.35,0.274 µM,1.94 µM,
Cn1c2c(c3ccccc31)CCN(CCN1CCN(c3ccccc3)CC1)C2=O,> 100,> 100,96.5,,> 100,> 100,,,,,,,,,,,,,,
COc1cc2c(cc1OCCCCCOc1cc3c(cc1OC)C(=O)N1CC(F)C[C@H]1C=N3)N=C[C@@H]1CC(F)CN1C2=O (stereo partly specified),0.0713,,,1.15,6.32,0.235,0.217,2.89,0.55,0.761,0.0863,< 0.01 µM,0.229,,0.369 µM,0.245,0.169,0.0135 µM,1.98 µM,
Cc1noc2cccc(OCc3ccccc3)c12,> 100,> 100,> 100,> 100,> 100,> 100,,,,,,,,,,,,,,
O=C(O)C1=CCCc2ccc3ccccc3c21,,> 100,> 100,> 100,> 100,> 100,> 100,,,,,,,,,,,,,
[Cl][Sn]([Cl])([c]1ccccc1)[c]1ccccc1,5.76,,6.36,39.1,29.7,28.6,,28.5,,,,1.74 µM,15,,19.6 µM,,,13.4 µM,15.7 µM,3.02
NC(=O)C#CC#CC#CCO,,2.59,3.83,12.2,3.01,3.72,14.9,3.1,,,,,,,,,,,,
CS(=O)(=O)OCC1OC(n2ccc(NC(=O)c3ccccc3)nc2=O)CC1OS(C)(=O)=O (stereo unspecified),> 100,> 100,,> 100,> 100,> 100,> 100,,> 100,> 100,,,,,,,,,,
O=c1c2ccccc2c(Br)c(Br)c2ccccc12,,29.3,,29.6,18,29,23,35.8,50.7,21,5.37,,17.3,4.92,12.5 µM,19.9,4.56,12.6 µM,3.91 µM,
N#CC(C(=O)/C(=N/NC(=O)c1ccccc1O)C(C#N)c1ccccc1)c1ccccc1 (stereo unspecified),,> 100,> 100,> 100,> 100,> 100,> 100,> 100,,,,,,,,,,,,
